What was measured:
Test in all cases: relative viability (nuclei count vs DMSO), 5 days (fraction); higher = more cells survive
[1] = system: UMC-11
Method in brief: (§1)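 Relative viability was taken as the ratio of nuclei in treated wells to nuclei in vehicle wells. Lung cancer cell lines in 1536-well plates received compounds by pin tool one day after seeding, either one drug alone or a fixed anchor-drug dose plus five library-drug doses (not always all listed) in √10 steps. Nuclei were counted on 4× images after 5 days of treatment, and values are medians of duplicate plates.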

[2] = system: NCI-H650
Method in brief: as §1

[3] = system: A-427
Method in brief: as §1

[4] = system: PC-3 [JPC-3]
Method in brief: as §1

[5] = system: NCI-H2405
Method in brief: as §1

[6] = system: NCI-H1975
Method in brief: as §1

[7] = system: NCI-H460
Method in brief: as §1

[8] = system: NCI-H3122
Method in brief: as §1

[9] = system: SK-LU-1
Method in brief: as §1

[10] = system: NCI-H1755
Method in brief: as §1

[11] = system: NCI-H1915
Method in brief: as §1

[12] = system: NCI-H441
Method in brief: as §1

[13] = system: NCI-H1793
Method in brief: as §1

[14] = system: NCI-H2023
Method in brief: as §1

[15] = system: H3255
Method in brief: as §1

[16] = system: HCC-15
Method in brief: as §1

[17] = system: NCI-H1437
Method in brief: as §1

[18] = system: NCI-H2009
Method in brief: as §1

[19] = system: LXF-289
Method in brief: as §1

[20] = system: HCC-366
Method in brief: as §1

[21] = system: NCI-H596
Method in brief: as §1

[22] = system: PC-14
Method in brief: as §1

[23] = system: HARA
Method in brief: as §1

O=c1[nH]c2ccccc2n1C1CCN(CCCC(c2ccc(F)cc2)c2ccc(F)cc2)CC1 [Pimozide] + N=C(N)NC(=N)NCCc1ccccc1 [Phenformin] (partner 250 µM)
relative viability ([1]; first compound 0.08 µM): 0.331
relative viability ([1]; first compound 0.253 µM): 0.333
relative viability ([1]; first compound 0.8 µM): 0.344
relative viability ([1]; first compound 2.53 µM): 0.313
relative viability ([1]; first compound 8 µM): 0.245
relative viability ([2]; first compound 0.08 µM): 0.445
relative viability ([2]; first compound 0.253 µM): 0.452
relative viability ([2]; first compound 0.8 µM): 0.417
relative viability ([2]; first compound 2.53 µM): 0.467
relative viability ([2]; first compound 8 µM): 0.457
relative viability ([3]; first compound 0.08 µM): 0.368
relative viability ([3]; first compound 0.253 µM): 0.361
relative viability ([3]; first compound 0.8 µM): 0.36
relative viability ([3]; first compound 2.53 µM): 0.238
relative viability ([3]; first compound 8 µM): 0.26
relative viability ([4]; first compound 0.08 µM): 0.357
relative viability ([4]; first compound 0.253 µM): 0.469
relative viability ([4]; first compound 0.8 µM): 0.451
relative viability ([4]; first compound 2.53 µM): 0.486
relative viability ([4]; first compound 8 µM): 0.403
relative viability ([5]; first compound 0.08 µM): 0.412
relative viability ([5]; first compound 0.253 µM): 0.389
relative viability ([5]; first compound 0.8 µM): 0.478
relative viability ([5]; first compound 2.53 µM): 0.381
relative viability ([5]; first compound 8 µM): 0.418
relative viability ([6]; first compound 0.08 µM): 0.427
relative viability ([6]; first compound 0.253 µM): 0.395
relative viability ([6]; first compound 0.8 µM): 0.414
relative viability ([6]; first compound 2.53 µM): 0.454
relative viability ([6]; first compound 8 µM): 0.391
relative viability ([7]; first compound 0.08 µM): 0.556
relative viability ([7]; first compound 0.253 µM): 0.507
relative viability ([7]; first compound 0.8 µM): 0.501
relative viability ([7]; first compound 2.53 µM): 0.516
relative viability ([7]; first compound 8 µM): 0.492
relative viability ([8]; first compound 0.08 µM): 0.372
relative viability ([8]; first compound 0.253 µM): 0.362
relative viability ([8]; first compound 0.8 µM): 0.393
relative viability ([8]; first compound 2.53 µM): 0.343
relative viability ([8]; first compound 8 µM): 0.312
relative viability ([9]; first compound 0.08 µM): 0.559
relative viability ([9]; first compound 0.253 µM): 0.533
relative viability ([9]; first compound 0.8 µM): 0.558
relative viability ([9]; first compound 2.53 µM): 0.532
relative viability ([9]; first compound 8 µM): 0.415
relative viability ([10]; first compound 0.08 µM): 0.585
relative viability ([10]; first compound 0.253 µM): 0.587
relative viability ([10]; first compound 0.8 µM): 0.574
relative viability ([10]; first compound 2.53 µM): 0.64
relative viability ([10]; first compound 8 µM): 0.538
relative viability ([11]; first compound 0.08 µM): 0.363
relative viability ([11]; first compound 0.253 µM): 0.349
relative viability ([11]; first compound 0.8 µM): 0.349
relative viability ([11]; first compound 2.53 µM): 0.366
relative viability ([11]; first compound 8 µM): 0.367
relative viability ([12]; first compound 0.08 µM): 0.96
relative viability ([12]; first compound 0.253 µM): 0.758
relative viability ([12]; first compound 0.8 µM): 0.767
relative viability ([12]; first compound 2.53 µM): 0.783
relative viability ([12]; first compound 8 µM): 0.825
relative viability ([13]; first compound 0.253 µM): 0.29
relative viability ([13]; first compound 0.8 µM): 0.226
relative viability ([13]; first compound 2.53 µM): 0.237
relative viability ([13]; first compound 8 µM): 0.356
relative viability ([14]; first compound 0.08 µM): 0.41
relative viability ([14]; first compound 0.253 µM): 0.403
relative viability ([14]; first compound 0.8 µM): 0.397
relative viability ([14]; first compound 2.53 µM): 0.385
relative viability ([14]; first compound 8 µM): 0.354
relative viability ([15]; first compound 0.253 µM): 0.37
relative viability ([15]; first compound 0.8 µM): 0.387
relative viability ([15]; first compound 2.53 µM): 0.372
relative viability ([15]; first compound 8 µM): 0.4
relative viability ([16]; first compound 0.08 µM): 0.511
relative viability ([16]; first compound 0.253 µM): 0.431
relative viability ([16]; first compound 0.8 µM): 0.432
relative viability ([16]; first compound 2.53 µM): 0.433
relative viability ([16]; first compound 8 µM): 0.448
relative viability ([17]; first compound 0.08 µM): 0.395
relative viability ([17]; first compound 0.253 µM): 0.318
relative viability ([17]; first compound 0.8 µM): 0.327
relative viability ([17]; first compound 2.53 µM): 0.275
relative viability ([17]; first compound 8 µM): 0.25
relative viability ([18]; first compound 0.08 µM): 0.476
relative viability ([18]; first compound 0.253 µM): 0.479
relative viability ([18]; first compound 0.8 µM): 0.507
relative viability ([18]; first compound 2.53 µM): 0.46
relative viability ([18]; first compound 8 µM): 0.391
relative viability ([19]; first compound 0.08 µM): 0.501
relative viability ([19]; first compound 0.253 µM): 0.502
relative viability ([19]; first compound 0.8 µM): 0.475
relative viability ([19]; first compound 2.53 µM): 0.505
relative viability ([19]; first compound 8 µM): 0.487
relative viability ([20]; first compound 0.08 µM): 0.664
relative viability ([20]; first compound 0.253 µM): 0.609
relative viability ([20]; first compound 0.8 µM): 0.528
relative viability ([20]; first compound 2.53 µM): 0.535
relative viability ([20]; first compound 8 µM): 0.469
relative viability ([21]; first compound 0.08 µM): 0.751
relative viability ([21]; first compound 0.253 µM): 0.774
relative viability ([21]; first compound 0.8 µM): 0.588
relative viability ([21]; first compound 2.53 µM): 0.637
relative viability ([21]; first compound 8 µM): 0.897
relative viability ([22]; first compound 0.253 µM): 0.451
relative viability ([22]; first compound 2.53 µM): 0.4
relative viability ([22]; first compound 8 µM): 0.517
relative viability ([23]; first compound 0.253 µM): 0.503
relative viability ([23]; first compound 0.8 µM): 0.405
relative viability ([23]; first compound 2.53 µM): 0.423
relative viability ([23]; first compound 8 µM): 0.431

Reference: the supplement of paper PMC10307832
